Values after ≈ are worked out from the molar mass of the structure shown.
Experiments:
physchem = conditions: EtOH/EtOAc/Tol, organic solvent or mixture, Solubility-Org (EtOH/EtOAc/Tol)
[1] = acetic acid
[2] = acetic acid; remark: listed apart in the source
[3] = system: ovariectomized rat model of osteopenia; conditions: cited from earlier work
uterine response = conditions: preclinical models of uterine stimulation; cited from earlier work
[4] = system: MCF-7 cell line (human breast cancer cell line); conditions: MCF-7 human breast cancer cell line; cited from earlier work

| Compound | solubility (physchem) [mg/mL] | Solubility-Water [1] [mg/mL] | Solubility-Org (EtOH/EtOAc/Tol) [2] [mg/mL] | effect on bone loss [3] | effect on cholesterol [3] | stimulation of uterine response (uterine response) | estrogen agonist/antagonist behaviour in MCF-7 cells [4] |
| --- | --- | --- | --- | --- | --- | --- | --- |
| Cc1c(-c2ccc(O)cc2)n(Cc2ccc(OCCN3CCCCCC3)cc2)c2ccc(O)cc12 [Form A, 1-[4-(2-azepan-1-yl-ethoxy)-benzyl]-2-(4-hydroxy-phenyl)-3-methyl-1H-indol-5-ol acetic acid] | 24.5 (≈ 52.1 mM) | 0.49 (≈ 1.04 mM) |  |  |  |  |  |
| Cc1c(-c2ccc(O)cc2)n(Cc2ccc(OCCN3CCCCCC3)cc2)c2ccc(O)cc12 [Form B, 1-[4-(2-azepan-1-yl-ethoxy)-benzyl]-2-(4-hydroxy-phenyl)-3-methyl-1H-indol-5-ol acetic acid] |  | 0.23 (≈ 0.489 mM) | 12.4 (≈ 26.3 mM) |  |  |  |  |
| Cc1c(-c2ccc(O)cc2)n(Cc2ccc(OCCN3CCCCCC3)cc2)c2ccc(O)cc12 [bazedoxifene acetate, 1-[4-(2-azepan-1-yl-ethoxy)-benzyl]-2-(4-hydroxy-phenyl)-3-methyl-1H-indol-5-ol acetic acid] |  |  |  | estrogen agonist-like effect in preventing bone loss | reducing cholesterol | little or no stimulation of uterine response | behaves as an estrogen antagonist |
